Source: the supplement of paper PMC5908809

What was measured:
[1] = test system: normal NK cells expanded with K562-aAPC; test: percent inhibition of viability; higher = more inhibition; details: 72 h, IL-2 2.5 ng/mL
Method: (§1)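 Drug sensitivity and resistance testing on K562-aAPC-expanded normal NK cells: 5 concentrations (10-fold steps over a 10,000-fold range), 72 h at 37 °C, viability by CellTiter-Glo normalised to DMSO and benzethonium chloride controls; DSS from the fitted curve.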

[2] = test system: normal primary NK cells, pool 1 (3 donors), resting (IL-2 0 ng/mL); test: as above; details: 72 h
[3] = test system: normal primary NK cells, pool 1 (3 donors) (IL-2 2.5 ng/mL); test: as above; details: 72 h
[4] = test system: IMC-1 (IL-2 20 ng/mL); test: as above; details: 72 h
[5] = test system: KAI3 (IL-2 2.5 ng/mL); test: as above; details: 72 h
[6] = test system: NK-YS (IL-2 2.5 ng/mL); test: as above; details: 72 h
[7] = test system: NKL (IL-2 2.5 ng/mL); test: as above; details: 72 h
[8] = test system: DERL-7 (IL-2 2.5 ng/mL); test: as above; details: 72 h
[9] = test system: KHYG-1 (IL-2 2.5 ng/mL); test: as above; details: 72 h
[10] = test system: YT (IL-2 2.5 ng/mL); test: as above; details: 72 h
[11] = test system: normal primary NK cells, pool 3 (3 donors) (IL-2 2.5 ng/mL); test: as above; details: 72 h
[12] = test system: SNK-6 (IL-2 2.5 ng/mL); test: as above; details: 72 h
[13] = test system: NK-92 (IL-2 2.5 ng/mL); test: as above; details: 72 h
[14] = test system: normal primary NK cells, pool 2 (3 donors) (IL-2 2.5 ng/mL); test: as above; details: 72 h
[15] = test system: normal NK cells expanded with K562-aAPC; test: drug sensitivity score (DSS) (DSS units); higher = more sensitive; extreme values may be limits of the assay; details: 72 h; IL-2 2.5 ng/mL
Method: as §1

[16] = test system: normal primary NK cells, pool 1 (3 donors), resting (IL-2 0 ng/mL); test: as above; details: 72 h
[17] = test system: normal primary NK cells, pool 1 (3 donors) (IL-2 2.5 ng/mL); test: as above; details: 72 h
[18] = test system: IMC-1 (IL-2 20 ng/mL); test: as above; details: 72 h
[19] = test system: KAI3 (IL-2 2.5 ng/mL); test: as above; details: 72 h
[20] = test system: NK-YS (IL-2 2.5 ng/mL); test: as above; details: 72 h
[21] = test system: NKL (IL-2 2.5 ng/mL); test: as above; details: 72 h
[22] = test system: DERL-7 (IL-2 2.5 ng/mL); test: as above; details: 72 h
[23] = test system: KHYG-1 (IL-2 2.5 ng/mL); test: as above; details: 72 h
[24] = test system: YT (IL-2 2.5 ng/mL); test: as above; details: 72 h
[25] = test system: normal primary NK cells, pool 3 (3 donors) (IL-2 2.5 ng/mL); test: as above; details: 72 h
[26] = test system: SNK-6 (IL-2 2.5 ng/mL); test: as above; details: 72 h
[27] = test system: NK-92 (IL-2 2.5 ng/mL); test: as above; details: 72 h
[28] = test system: normal primary NK cells, pool 2 (3 donors) (IL-2 2.5 ng/mL); test: as above; details: 72 h

COc1cc([C@@H]2c3cc4c(cc3[C@@H](O[C@@H]3O[C@@H]5CO[C@@H](C)O[C@H]5[C@H](O)[C@H]3O)[C@H]3COC(=O)[C@H]23)OCO4)cc(OC)c1O [Etoposide] (max concentration tested 10000 nM)
percent inhibition of viability [%]
Details | 1 nM | 10 nM | 100 nM | 1000 nM | 10000 nM
[1] | -5.25 | -8.84 | -1.72 | 49.7 | 65.7
[2] | 0.93 | 10 | 22.8 | 40 | 90.5
[3] | -1.51 | 1.58 | 11.1 | 14.3 | 79.7
[4] | -6.15 | 1.75 | 34.8 | 97.9 | 99.5
[5] | 5.94 | 13.2 | 41.3 | 76.4 | 78
[6] | 3.6 | 4.01 | 29.1 | 77.3 | 83.9
[7] | -3.26 | 4.8 | 80.7 | 94.3 | 101
[8] | -3.7 | 3.15 | 32.8 | 97 | 82.8
[9] | -3.98 | -9.64 | 3.44 | 87.1 | 101
[10] | -3.45 | -8.19 | -5.67 | 44.7 | 98.2
[11] | 0.28 | -3.78 | 10.1 | 11.7 | 48.3
[12] | -11.1 | 0.92 | -0.88 | 74.3 | 96.2
[13] | -7.31 | -6.78 | 5.02 | 67.3 | 101
[14] | -2.19 | -0.27 | 0.34 | 8.73 | 53.7

Details | drug sensitivity score
[15] | 9.42
[16] | 11.3
[17] | 6.78
[18] | 22.2
[19] | 19.3
[20] | 17.7
[21] | 28
[22] | 21.9
[23] | 16.2
[24] | 11.1
[25] | 4.07
[26] | 13.8
[27] | 13.7
[28] | 4.34

Nc1nc(Nc2ccc3c(c2)CC[C@@H](N2CCCC2)CC3)nn1-c1cc2c(nn1)-c1ccccc1CCC2 [BGB324] (max concentration tested 10000 nM)
percent inhibition of viability [%]
Details | 1 nM | 10 nM | 100 nM | 1000 nM | 10000 nM
[1] | -3.36 | -11.5 | -1.93 | 21.5 | 99.9
[2] | 7.14 | 3.63 | 5.02 | 83.6 | 99.8
[3] | -3.33 | -4.6 | -5.97 | 66.2 | 99.8
[4] | -1.43 | -0.15 | 0.68 | -4.19 | 99.9
[5] | -3.31 | -2.86 | 2.2 | 43.9 | 101
[6] | -2.01 | -2.03 | 0.13 | 14.3 | 101
[7] | 6.99 | -6.74 | 6.47 | 73.7 | 102
[8] | 1.87 | -0.37 | 13.9 | 68 | 101
[9] | -2.69 | -1.76 | 3.04 | 59 | 103
[10] | -0.88 | -5.6 | -1.23 | 11 | 101
[11] | -9.08 | -10.5 | -10.5 | 23.1 | 99.8
[12] | 12.8 | 12.3 | -18.1 | 34.5 | 99.7
[13] | -4.37 | -8.81 | -0.92 | 49 | 102
[14] | -7.98 | -0.57 | -5.73 | 45.8 | 100

Details | drug sensitivity score
[15] | 8.94
[16] | 16
[17] | 13.2
[18] | 5.23
[19] | 11.2
[20] | 7.94
[21] | 14.8
[22] | 14.7
[23] | 12.5
[24] | 7.38
[25] | 9.12
[26] | 10.3
[27] | 11.6
[28] | 11.3

CN(N=O)C(=O)N[C@@H](C=O)[C@@H](O)[C@H](O)[C@H](O)CO [Streptozocin] (max concentration tested 10000 nM)
percent inhibition of viability [%]
Details | 1 nM | 10 nM | 100 nM | 1000 nM | 10000 nM
[1] | -0.04 | 4.41 | 2.61 | 7.51 | 13.9
[2] | -9.25 | -22.8 | -15.8 | -38.7 | -21.4
[3] | -0.38 | -7.4 | -2.69 | -9.47 | -1.13
[4] | -3 | -1.77 | 1.49 | 5.01 | 21.2
[5] | -8.8 | -7.24 | -7.83 | -15.1 | -3.23
[6] | -3.08 | -5.94 | 5.25 | -5.62 | 10.8
[7] | -22.4 | -14.9 | -15.8 | -16.6 | -9.59
[8] | -4.65 | -4.39 | -0.36 | -4.36 | -9.4
[9] | -0.99 | -4.93 | 2.57 | -0.52 | 4.73
[10] | -1.12 | -3.14 | 1.58 | -0.51 | 9.38
[11] | -12.8 | -5.88 | -5.23 | -3.37 | -3
[12] | 4.98 | 18.1 | 36.6 | 23.4 | 36.7
[13] | -10.2 | -0.49 | -2.54 | -2.99 | -3.48
[14] | -14.4 | -2.41 | 1.68 | -6.8 | -12.2

Details | drug sensitivity score
[15] | 0.16
[16] | 0
[17] | 0
[18] | 1.35
[19] | 0
[20] | 0
[21] | 0
[22] | 0
[23] | 0
[24] | 0
[25] | 0
[26] | 12.4
[27] | 0
[28] | 0

CCN(CC)CCNC(=O)c1c(C)[nH]c(/C=C2\C(=O)Nc3ccc(F)cc32)c1C [Sunitinib] (max concentration tested 1000 nM)
percent inhibition of viability [%]
Details | 0.1 nM | 1 nM | 10 nM | 100 nM | 1000 nM
[1] | -1.15 | -8.6 | -7.99 | -3.78 | 8.28
[2] | -1.26 | -12.4 | 6.63 | 10.2 | 8.42
[3] | -9.12 | -5.49 | 0.84 | 2.57 | 11.7
[4] | -2.84 | -1.04 | -2.36 | -9.74 | -11.7
[5] | -6.44 | -3.5 | -1.64 | -2.65 | 13.1
[6] | -7.84 | -1.57 | -0.53 | -5.09 | 20
[7] | -10.3 | -18.8 | -13.7 | -21.1 | -19
[8] | -3.26 | -7.9 | -4.27 | 2.22 | 8.72
[9] | -2.13 | -0.89 | -1.78 | -2.5 | -1.47
[10] | -1.95 | 0.38 | 0.07 | -2.92 | -1.42
[11] | -5.22 | -2.41 | -6.25 | -3.39 | 0.3
[12] | 5.7 | 4.75 | 3.71 | -18.1 | -44.5
[13] | -1.8 | -5.15 | -7.66 | -13.8 | -16.3
[14] | -6.76 | -0.63 | -6.25 | -4.61 | 11.7

Details | drug sensitivity score
[15] | 0
[16] | 0.08
[17] | 0.13
[18] | 0
[19] | 0.06
[20] | 0.4
[21] | 0
[22] | 0
[23] | 0
[24] | 0
[25] | 0
[26] | 0
[27] | 0
[28] | 0

c1ccc(Cn2c(-c3ccc(OC[C@H](C4CCNCC4)n4c(-c5ccccc5)nc5ccccc54)cc3)nc3ccccc32)cc1 [deltarasin] (max concentration tested 10000 nM)
percent inhibition of viability [%]
Details | 1 nM | 10 nM | 100 nM | 1000 nM | 10000 nM
[1] | -6.73 | -5.61 | -6.67 | -4.59 | 100
[2] | -29 | -22.3 | -17.1 | 22.4 | 100
[3] | -6.29 | -12.3 | -0.84 | 3.6 | 100
[4] | -1.41 | -1.69 | -5.88 | -8.23 | 100
[5] | 1.58 | 6.95 | 3.87 | 19.1 | 99.1
[6] | 1.38 | 0.11 | 0.9 | 9.01 | 99.1
[7] | -1.26 | -0.19 | 0.54 | 13.1 | 100
[8] | -6.29 | 6.05 | -2.6 | 15.6 | 100
[9] | -3.81 | -4.92 | -1.42 | 4.21 | 99.4
[10] | -7.64 | -4.86 | -5.15 | 6.64 | 99
[11] | -5.09 | -3.8 | -9.07 | 2.9 | 101
[12] | -2.79 | 1.66 | -4.21 | -2.37 | 100
[13] | -6.78 | -14.8 | -7.87 | 17.8 | 98.7
[14] | 3.52 | -1.56 | -7.68 | 10.8 | 100

Details | drug sensitivity score
[15] | 5.21
[16] | 9.04
[17] | 6.08
[18] | 5
[19] | 8.58
[20] | 6.93
[21] | 7.72
[22] | 8.12
[23] | 6.1
[24] | 6.49
[25] | 6.03
[26] | 5.39
[27] | 8.37
[28] | 7.32
